From patent US11485762B2, “Compositions and methods for inhibition of L-plastin activity in osteoclasts to reduce bone loss” (University of Maryland, Baltimore, priority 2017, dated 2022)

How the values were obtained:
endogenous LPL = test: Phosphorylation of endogenous (cellular) LPL in osteoclasts (LPL immunoprecipitation, p-Serine immunoblot); format: cell-based, mouse; conditions: sNT-LPL peptides, 3-4 hours, bone particles and TNF-α
Description: Bone particles (60-80 μm in size) were prepared as described previously (Ma et at, 2010, J. Biol. Chem., 285: 29911-29924). After flushing the marrow cells for osteoclast differentiation as described above, long bones of mice (free of cells inside and muscles outside) were washed extensively with PBS and kept in ethanol until use. Long bones were air-dried in the hood and homogenized by a mini blender. Bone particles were sieved and used for experiments. Multinucleated osteoclasts were seen from day four onward. At this time cultures were added with bone particles (100 μg/ml media) for 3-4 hours or 12-14 hours in the presence of TNF-α (20 ng/ml). Some cultures were treated with 3-5 μg/ml TNFR1 antibody. Osteoclasts were preincubated with the TNFR1 antibody for 60-90 minutes before the addition of TNF-α to enhance the blocking effect. Osteoclasts incubated with bone particles for 3-4 or 12-14 hours in the presence of TNF-α were used for lysate preparations.
The vector pTAT-HA has an N-terminal 6-histidine leader (Nagahara et al., 1998, Nature Medicine, 4:1449-1452). […] For transduction with TAT-fused peptides (100-150 nM), osteoclasts were first kept in serum-free α-MEM for two hours. Afterward, TAT proteins of interest, bone particles, and TNF-α were added to cells in serum-free α-MEM Lysates were made from these cells for immunoprecipitation and immunoblotting analyses. Osteoclasts plated on dentine slices in the presence of TAT-proteins of interest and TNF-α for 3-6 hours or 12-14 hours were used for immunostaining or actin staining analyses. Osteoclast cultures treated only with TNF-α were used as controls.
Following various treatments, osteoclasts were washed three-times with cold PBS and lysed in a radioimmune precipitation buffer (RIPA; 10 mM Tris-HCl, pH 7.2, 150 mM NaCl, 1% deoxycholate, 1% Triton X-100, 0.1% SDS, 1% aprotinin, 2 mM PMSF, […], and 1% aprotinin). Cells were rocked on ice for 15 minutes and scraped off with a cell scraper. Cell lysates were centrifuged at 15,000 rpm for 5 minutes at 4° C., and the supernatant was saved. Protein contents were measured using Bio-Rad protein assay reagent. Equal amounts of lysate proteins (100-150 μg) were used for immunoprecipitations. Immunoprecipitations and Western blotting were done as described previously (Chellaiah et al., 1998, J. Biol. Chem., 273: 11908-11916; Chellaiah et al., 1996, Mol. Biol. Cell, 7: 743-753).
After cells were kept in the serum-free α-MEM medium for two hours, LPL peptides of interest were added to a final concentration of 100-150 nM to cells in serum-free media (Chellaiah et al, 2000, J. Biol. Chem., 275: 11993-12002). Osteoclasts transduced with peptides of interest and added with bone particles in the presence of TNF-α for 3-4 hours or 12-14 hours were used for lysate preparations. Cells plated on coverslips and treated with peptides were used for actin staining to detect podosomes. After transduction for 30 min., osteoclasts were re-plated on dentine slices with respective LPL peptide and TNF-α for 3-6 hours or 12-14 hours. These cells were used for Actin staining with rhodamine-phalloidin or immunostaining analyses (Chellaiah et al., 2000, J. Biol. Chem., 275: 11993-12002; Chellaiah et al., 2000, J. Cell. Biol., 148: 665-678; Chellaiah et al., 2003, J Biol Chem 278: 29086-29097).
Following various treatments, osteoclasts were washed three times with cold PBS and lysed in a Triton-containing lysis buffer as described (Chellaiah et al., 1996, Mol. Biol. Cell, 7: 743-753). Cells were rocked on ice for 15 minutes, and scraped off with a cell scraper. Cell lysates were centrifuged at 15,000 rpm for 5 minutes, at 4° C., and the supernatant was saved. Protein contents were measured using Bio-Rad protein assay reagent. Osteoclast cultures were also subjected to a trypan blue dye (Sigma T8154) exclusion test to determine the viability of osteoclasts after various treatments. […]

osteoclasts = test: F-actin content by rhodamine phalloidin binding; format: cell-based, mouse; conditions: sNT-LPL peptides; compared with P2, P5, and P6
Description: For the measurement of F-actin, osteoclasts transduced with TAT-LPL peptides of interest for 15 to 30 minutes were re-plated on dentine slices for 3 to 4 hours or 10-12 hours, respectively, in the presence of indicated TAT-fused peptides of interest and TNF-α. For each treatment four to six wells in 24 well, culture dishes were used. Cells were fixed and rhodamine phalloidin binding to F-actin was done as described (Chellaiah et al., 2000, J. Cell Biol., 148: 665-678; Chellaiah et al., 2000, J. Biol. Chem., 275: 11993-12002: Chellaiah et at, 2007, J. Biol. Chem., 282: 10104-10116),
Osteoclasts were transduced with LPL and control peptides. For each treatment four to six wells in 24 well culture dishes were used. Cells were fixed and rhodamine phalloidin binding to F-actin was done as described (Chellaiah et al., 1998, J. Biol. Chem., 273: 11908-11916; Chellaiah et al., 1996, Mol. Biol. Cell, 7: 743-753).

F-actin level (osteoclasts) | Sequence | inhibitory effect on the phosphorylation of cellular LPL (endogenous LPL)
decreased | MARGAVSDEE [Peptide P3, TAT-fused sNT-LPL peptide, Ser-5 substituted with Ala (A5S7)] | varied inhibitory effects
decreased | MARGSVADEE [Peptide P4, TAT-fused sNT-LPL peptide, Ser-7 substituted with Ala (S5A7)] | varied inhibitory effects
